# Measurements taken from US20220175798A1, “COMPOSITIONS COMPRISING OXYGENATED CHOLESTEROL SULFATE AND AT LEAST ONE OF POLYALKYLENE GLYCOL, CARBOXYMETHYL CELLULOSE AND POLYOXYLGLYCERIDE” (Durect Corporation, priority 2016, published 2022).
# What was measured:
# [1] = test system: non-alcoholic steatohepatitis (NASH); assay: Accelerated mouse model of NASH (STZ + HFD), Part I; assay type: in vivo, C57BL/6J mice; details: vs vehicle
# Experimental: The subjects for the study were 30 C57BL/6J male mice. Mice were given a 200 ug streptozotocin (STZ) at 2 days after birth and fed high fat diet (HFD) starting at four weeks of age until the remainder of the study (9 weeks of age). This intervention early in their lives induces accelerated progression of non-alcoholic steatohepatitis (NASH) and has been highly characterized.
# The Vehicle was a solution of 0.5% (w/v) CMC and 0.05% (v/v) Tween-80 in water. Powdered 25HC3 S was constituted into the vehicle solution to result in drug concentrations of 5 and 10 mg/mL. The suspensions were homogenized for approximately 5 minutes being combined, with 10 second breaks every 30-40 seconds and swirled before dosing to maintain homogeneity. The formulated test article was prepared weekly and kept at room temperature.
# Mice were divided into treatment groups (N=10/group) and dosed daily by oral gavage with vehicle, 10 mg/kg or 50 mg/kg 25HC3S starting from Week 5 to Week 9 (28 days treatment).
# [2] = test system: APAP-induced liver failure; assay: Acetaminophen (APAP)-induced model of acute liver failure; assay type: in vivo, C57BL/6J mice; details: 25 mg/kg oral gavage 1 hr (and 24 hr) post APAP 300 mg/kg; vs vehicle
# Experimental: The subjects for the study were 52 C57BL/6J male mice (12 weeks of age; 27.4-40 g). […] All animals were in healthy condition and admitted to the study.
# The Vehicle was a solution of 0.5% (w/v) CMC and 0.05% (v/v) Tween-80 in water. Powdered 25HC3 S was constituted into the vehicle solution to result in a drug concentration of 3 mg/mL. The suspensions were homogenized at 20,000 rotations per minute (rpm) for approximately 5 minutes after being combined, with 10 second breaks every 30-40 seconds and swirled before dosing to maintain homogeneity. The formulated test article was prepared weekly and kept at room temperature.
# Two groups of mice (N=14/group) were challenged with 300 mg/kg APAP by oral gavage. The two groups were treated with one dose of vehicle or 25HC3 S (25 mg/kg) by oral gavage at a dose volume of 8.33 mL/kg one hour post-APAP challenge. Half of the mice in each group (N=6-7/group) were given a second dose of vehicle or 25HC3 S (25 mg/kg) at 24 hour post-APAP delivery in addition to the first dose at 1 hr. Cohort A mice (single dose) were sacrificed 24 hrs post APAP-challenge and Cohort B mice (two doses) were sacrificed at 48 hours post APAP-challenge. A parallel set of untreated age-matched mice (no APAP and vehicle administered by oral gavage) were also sacrificed at both time points to compare baseline measurements (N=6/time point; 12 in total). […]
# [3] = Ease of dispersion: appearance of suspension and sedimentation (visual inspection); assay type: physicochemical; details: 25 mg/mL in Vehicle PEG 3350 (without L-Methionine)
# Experimental: Two lots of 25HC3S sodium salt (Lot #A and Lot #B) were used. Lot #B was delumped through a 20 mesh screen. The drug substance was either used directly or further jet-milled, prior to the preparation of suspensions for the studies. A third lot of 25HC3 S sodium salt (Lot #C) was jet-milled first and then used directly or further passed through a 20 mesh screen prior to the studies. More than 10 vehicles were screened. Four mixing methods were evaluated: manual shaking (Mixing Method 1), manual shaking followed by sonication (Mixing Method 2) and homogenization with a sonic probe (Mixing Method 3) as well as mechanical shaking horizontally in a flat bed shaker (Mixing Method 4). Studies #1 to 13 combined vehicle screening, mixing methods and syringeability evaluation. The effect of drug concentrations on the syringeability was evaluated (Studies #10 and 11).
# Weigh approximately 10 to 100 mg each of 25HC3S into 2 mL vials. Add to each vial, 1 mL of vehicle. A total of 3 mixing methods were used to prepare the suspensions. Mixing Method 1: Each vial was manually shaken for 15 to 45 times. The suspension was inspected visually for sedimentation after stored at room temperature (RT) for one minute. […] Mixing Method 2: Each vial was manually shaken 30 times followed by sonication for 3 or 6 minutes for syringeability study. […]
# [4] = Single SC or IM injection PK study in rats; assay type: in vivo, Sprague Dawley rats
# Experimental: The subjects for the study were 15 male Sprague Dawley rats (8-11 weeks of age; 280-327 g at time of dosing). […] All animals were in healthy condition and admitted to the study.
# The Vehicle was a solution of 3% (w/v) polyethylene glycol 3350, 0.3% (v/v) polysorbate 80, 0.7% (w/v) sodium chloride, 0.15% (w/v) L-methionine, 10 mM sodium phosphate buffer at pH 7.4 in water. 25HC3S was mixed into the Vehicle solution to result in drug concentrations of 25, 5 and 10 mg/mL. […] The formulated test article was used within 24 hours of constitution.
# Each rat received a single IM or SC injection (2 doses) (N=5/group). The dose level for the IM injection was 25 mg/kg was administered in a dose volume of 1 mL/kg. There were two dose groups for the SC injection route. The dose levels for the SC injections were 25 and 50 mg/kg with a dose volume of […] for both groups (drug concentrations were 5 and 10 mg/mL, respectively). Whole blood samples were collected via the jugular vein or the submandibular vein at pre-dose, 0.5, 1, 2, 4, 8, 12, 24, and 32 hours (h) post dose from each rat; however, the last blood collection may have been collected by terminal cardiac puncture with the animals deeply anesthetized by isoflurane. Blood samples were placed into tubes containing K2EDTA. The blood was gently mixed to assure distribution of the anti-coagulant and the resulting plasma samples underwent analyses to quantify 25HC3 S levels. […] Assessments included, but were not limited to, assessment of activity, posture, respiration, emesis, seizure, hydration status, injection site assessment and overall body condition.
# [5] = 10 mg/kg daily oral gavage 28 days
compound,measurement,setting,value
"C[C@H](CCCC(C)(C)O)[C@H]1CC[C@H]2[C@@H]3CC=C4C[C@@H](OS(=O)(=O)[O-])CC[C@]4(C)[C@H]3CC[C@]12C.[Na+] [Formulation 25HC3S, 5-cholesten-3, 25-diol, 3-sulfate]",H&E-stained liver sections,[1]; [5],No obvious changes
same,percent area of fibrosis,[1]; [5],no significant difference
same,percent area of fibrosis (Sirius red-positive area),"[1]; 50 mg/kg daily oral gavage 28 days, p=0.0061",significantly decreased
same,NAS (NAFLD activity score),"[1]; 50 mg/kg daily oral gavage 28 days, p=0.0088",significant reduction
same,"serum chemistry parameters (ALT, AST, ALK, LDH, BUN, glucose)",[2],no effect
same,dispersion,[3]; flat bed shaker 100 rpm up to 50 minutes (Study #12),did not disperse well
same,dispersion,[3]; flat bed shaker 200 rpm up to 45 minutes (Study #13),dispersed well
same,mean maximum concentration,[4]; IM 25 mg/kg,101.9 (±17.1) ng/mL
same,mean time to maximum plasma drug concentration,[4]; IM 25 mg/kg,10.4 (±2.2) hr
same,mean maximum concentration,[4]; SC 25 mg/kg,127.1 (±93.8) ng/mL
same,mean time to maximum plasma drug concentration,[4]; SC 25 mg/kg,7.6 (±4.6) hrs
same,mean concentration at 32 h,[4]; SC 50 mg/kg,34.2 (±13.8) ng/mL
same,mean maximum concentration,[4]; SC 50 mg/kg,76 (±15.9) ng/mL
same,mean time to maximum plasma drug concentration,[4]; SC 50 mg/kg,7.2 (±1.8) hrs
same,clinical signs,[4]; single IM or SC injection,no observable clinical signs
